Several values for one entry are separate records, joined by “and”; a condition that tells them apart may be missing. Equal entries are not always repeated. Results filed as inconclusive are left out.
Tested on: nude mice, HT29 intrarenal xenograft, tumor weight T/C
Assay: NCI In Vivo Anticancer Drug Screen. Data for tumor model HT29;CX-1 Human Adenocarcinoma (MER+) (intrarenal inoculation) in NU/NU Swiss (nude) mice
Conditions: endpoint: mean tumor weight change, higher = larger tumour
In short: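 Mice with transplanted tumors are dosed with compound while controls get vehicle only. Survival or tumor burden is then assessed per group, and the treated value is expressed relative to control.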

NCCCC(N)(C(=O)O)C(F)F (stereo unspecified)
T/C (dose: 300.0 mg/kg/injection, schedule: Q04DX004 (sc), vehicle: distilled water + alcohol): 240 % of control | T/C (dose: 600.0 mg/kg/injection, schedule: Q04DX004 (sc), vehicle: distilled water + alcohol): 169 % of control | T/C (dose: 1200.0 mg/kg/injection, schedule: Q04DX004 (sc), vehicle: distilled water + alcohol): 75 % of control

CC(=S)NC(O)C(=O)c1ccccc1 (stereo unspecified)
T/C (dose: 300.0 mg/kg/injection, schedule: Q04DX004 (sc), vehicle: saline with Tween-80): 116 % of control

C[N+](C)(C)c1cc2c(nn1)Nc1ccccc1S2
T/C (dose: 50.0 mg/kg/injection, schedule: Q01DX010 (sc), vehicle: Klucel (hydroxypropylcellulose) (HPC)): 25 % of control | T/C (dose: 100.0 mg/kg/injection, schedule: Q01DX010 (sc), vehicle: Klucel (hydroxypropylcellulose) (HPC)): 85 % of control

COc1ccc(OC)c(Cc2cnc3nc(N)nc(N)c3c2C)c1
T/C (dose: 150.0 mg/kg/injection, schedule: Q04DX004 (sc), vehicle: water): 116 % of control | T/C (dose: 300.0 mg/kg/injection, schedule: Q04DX004 (sc), vehicle: water): 54 % of control

CCC[CH2][Sn]1([CH2]CCC)[O]C2C(CO)OC(n3ccc(N)nc3=O)C2[O]1 (stereo unspecified)
T/C (dose: 3.0 mg/kg/injection, schedule: Q04DX004 (sc), vehicle: Klucel (hydroxypropylcellulose) (HPC)): 27 % of control | T/C (dose: 6.0 mg/kg/injection, schedule: Q04DX004 (sc), vehicle: Klucel (hydroxypropylcellulose) (HPC)): 85 % of control | T/C (dose: 12.0 mg/kg/injection, schedule: Q04DX004 (sc), vehicle: Klucel (hydroxypropylcellulose) (HPC)): 109 % of control | T/C (dose: 24.0 mg/kg/injection, schedule: Q04DX004 (sc), vehicle: Klucel (hydroxypropylcellulose) (HPC)): 76 % of control

CCOC(=O)C(CC(C)C)NC(=O)C(Cc1ccc(N(CCCl)CCCl)cc1)NC(C)=O (stereo unspecified)
T/C (dose: 12.5 mg/kg/injection, schedule: Q01DX010 (sc), vehicle: saline with Tween-80): 66 % of control and 87 % of control | T/C (dose: 400.0 mg/kg/injection, schedule: Q04DX004 (sc), vehicle: saline with Tween-80): 62 % of control | T/C (dose: 800.0 mg/kg/injection, schedule: Q04DX004 (sc), vehicle: saline with Tween-80): 32 % of control | T/C (dose: 1200.0 mg/kg/injection, schedule: Q04DX004 (sc), vehicle: saline with Tween-80): 29 % of control

COc1cccc2c1C(=O)c1c(O)c3c(c(O)c1C2=O)C[C@@](O)(/C(C)=N/NC(=O)c1cccc([N+](=O)[O-])c1)C[C@@H]3OC1CC(N)C(O)C(C)O1 (stereo partly specified)
T/C (dose: 8.0 mg/kg/injection, schedule: Q01DX010 (sc), vehicle: water): 16 % of control | T/C (dose: 10.0 mg/kg/injection, schedule: Q04DX004 (sc), vehicle: water): 48 % of control | T/C (dose: 16.0 mg/kg/injection, schedule: Q01DX010 (sc), vehicle: water): 61 % of control | T/C (dose: 20.0 mg/kg/injection, schedule: Q04DX004 (sc), vehicle: water): 70 % of control | T/C (dose: 40.0 mg/kg/injection, schedule: Q04DX004 (sc), vehicle: water): 47 % of control | T/C (dose: 80.0 mg/kg/injection, schedule: Q04DX004 (sc), vehicle: water): 106 % of control

CCCCCCCCCCCCCCCCCCOCC(COP(=O)([O-])OCC[N+](C)(C)C)OC (stereo unspecified)
T/C (dose: 37.5 mg/kg/injection, schedule: Q04DX004 (sc), vehicle: saline): 98 % of control | T/C (dose: 75.0 mg/kg/injection, schedule: Q04DX004 (sc), vehicle: saline): 77 % of control | T/C (dose: 150.0 mg/kg/injection, schedule: Q04DX004 (sc), vehicle: saline): 50 % of control

CN(C)C=O
T/C (dose: 400.0 mg/kg/injection, schedule: Q01DX010 (sc), vehicle: saline): 186 % of control | T/C (dose: 3200.0 mg/kg/injection, schedule: Q01DX010 (sc), vehicle: saline): 48 % of control and 49 % of control

COc1ccc(C[C@H](N)C(=O)NC2C(CO)OC(n3cnc4c(N(C)C)ncnc43)C2O)cc1 (stereo partly specified)
T/C (dose: 100.0 mg/kg/injection, schedule: Q04DX004 (sc), vehicle: saline): 174 % of control | T/C (dose: 200.0 mg/kg/injection, schedule: Q04DX004 (sc), vehicle: saline): 96 % of control | T/C (dose: 400.0 mg/kg/injection, schedule: Q04DX004 (sc), vehicle: saline): 185 % of control

CC(=O)Oc1c[nH]c(=O)[nH]c1=O
T/C (dose: 100.0 mg/kg/injection, schedule: Q04DX004 (sc), vehicle: distilled water + Tween-80): 122 % of control | T/C (dose: 200.0 mg/kg/injection, schedule: Q04DX004 (sc), vehicle: distilled water + Tween-80): 117 % of control | T/C (dose: 400.0 mg/kg/injection, schedule: Q04DX004 (sc), vehicle: distilled water + Tween-80): 107 % of control | T/C (dose: 800.0 mg/kg/injection, schedule: Q04DX004 (sc), vehicle: distilled water + Tween-80): 93 % of control

NC(=O)c1cn(C2OC(CO)C(O)C2O)c2ncnc(N)c12 (stereo unspecified)
T/C (dose: 1.0 mg/kg/injection, schedule: Q01DX010 (sc), vehicle: saline): 115 % of control | T/C (dose: 2.0 mg/kg/injection, schedule: Q01DX010 (sc), vehicle: saline): 94 % of control

From PubChem BioAssay AID206 (DTP/NCI, 2004)
